Literature values as cited in patent publication US20070021351A1, “Liver/plasma concentration ratio for dosing hepatitis C virus protease inhibitor” (Schering Corporation, priority 2005, published 2007).

Details: in vivo; cited from earlier work

Structure (SMILES)	volume of distribution
C[C@H]1O[C@@H](O[C@H]2[C@@H](O)C[C@H](O[C@H]3[C@@H](O)C[C@H](O[C@H]4CC[C@@]5(C)[C@H](CC[C@@H]6[C@@H]5C[C@@H](O)[C@]5(C)[C@@H](C7=CC(=O)OC7)CC[C@]65O)C4)O[C@@H]3C)O[C@@H]2C)C[C@H](O)[C@@H]1O [digoxin, reference compound]	~450 L
CCO [ethanol, Ethanol]	about 35 L
